# Values joined by “and” are separate entries in the source; they are usually repeats but may differ in a detail not shown here. Identical values can stand only once.
# Legend:
# [1] = In vitro serum stability (radio-ITLC); format: in vitro ADME; settings: 37 C, after 7 days
# Description: In vitro serum stability. In vitro serum stability was carried out by adding 10 µL of each 89Zr-labeled complex (70 μCi, 2.59 MBq) to 500 µL of human serum. The solutions (n=4) were incubated at 37 °C for 7 days and were analyzed daily for 1 week by radio -TLC using Varian ITLC-SA strips and 0.1 M EDTA (pH 5) as the mobile phase and gamma counting using an energy window of 500-1500 keV and standard protocols . Serum samples were also analyzed after 7 days by size exclusion chromatography (SEC) using a Superdex 200 10/300 GLTM column (GE Healthcare Life Sciences, Piscataway, NJ) and phosphate buffered saline (PBS) as eluent with a flow rate of 0.5 mL/min.
# Figure S30. Radio-ITLC of 89Zr-DOTA solution in human serum at 37 °C after 0 h (a) and 7 days (b). […]
# [2] = In vitro metal competition study; format: physicochemical; settings: for % Intact of 89Zr-complexes: PBS pH 7.4, 37 C
# Description: In vitro Metal Competition study. To a solution of metal cations [iron (III) chloride, cobalt (II) chloride, zinc (II) chloride, copper (II) chloride, magnesium (II) chloride, gallium (III) nitrate, gadolinium (III) chloride] (1 mM, 200 µL), was added 89Zr-labeled complex (0.1 mM, 10 µL, 80 μCi, 2.96 MBq) in PBS, pH 7.4. The resulting solutions (n = 3) were incubated at 37 °C for 7 days in a thermomixer. Dissociation of 89Zr from 89Zr-complexes was monitored by radio-TLC at 2 h, 1 d, 4 d and 7 d time point. All studies were performed in triplicate.
# Biodistribution studies = format: in vivo, female NIH Swiss mice
# Description: Biodistribution Studies. Biodistribution studies were conducted using a modified literature procedure. 7 Briefly, female NIH Swiss mice (6-8 wk old, n=6) were injected with each 89Zr-labeled complex (0.55 MBq (15 μCi)/mouse) via the tail vein, and sacrificed at 2, 4, 24, 48, 72 h post-injection. Organs and tissues of interest were excised, weighted, and counted on a Perkin Elmer 2480 Wizard® gamma counter (Waltham, MA). The percent injected dose per gram (%ID/g) and percent injected dose per organ (%ID/organ) were calculated by comparison to a weighed, counted standard for each group (Tables S9 – S12).
# Statistical Methods. All of the data are presented as mean±SD or mean (95% Confidence Interval). For statistical classification a student’s t test (two-tailed, unpaired) was performed using GraphPad Prism (San Diego, CA). Any p<0.05 was considered significant.
# [3] = In vitro EDTA challenge study; format: physicochemical
# Description: In vitro EDTA challenge study. In vitro EDTA challenge study was carried out by adding 10 µL of each 89Zr-labeled complex (70 μCi, 2.59 MBq) to 500 µL of EDTA (10 mM, 50 mM and 100 mM: pH 5 and pH 7) with a 1:100, 1:500, and 1:1000 ratio of ligand/EDTA. The solutions (n=4) were incubated at 37 °C for 7 days in a thermomixer. Samples were analyzed at 30 min, 1 h, 3 h, 6 h, 1 d, 3 d, 5 d and 7 d post administration to EDTA by radio-TLC using Varian ITLC-SA strips and 0.1 M EDTA (pH 5) as the mobile phase and gamma counting using an energy window of 500-1500 keV and standard protocols .
# [4] = mice, intravenous, 72 h post-injection
structure (smiles),measurement,setting,value
O=C1CN2CCN3CCN4CCN(CC2)CC(=O)[O][89Zr]([O]1)([O]C(=O)C3)[O]C(=O)C4 [89Zr-DOTA],Radio-ITLC peak of complex in human serum,[1],100%
same,% Intact of 89Zr-complexes,"[2]; Co2+, 2 h",100%
same,% Intact of 89Zr-complexes,"[2]; Co2+, 1 d",100%
same,% Intact of 89Zr-complexes,"[2]; Co2+, 4 d",100%
same,% Intact of 89Zr-complexes,"[2]; Co2+, 7 d",100%
same,% Intact of 89Zr-complexes,"[2]; Cu2+, 2 h",100%
same,% Intact of 89Zr-complexes,"[2]; Cu2+, 1 d",100%
same,% Intact of 89Zr-complexes,"[2]; Cu2+, 4 d",100%
same,% Intact of 89Zr-complexes,"[2]; Cu2+, 7 d",100%
same,% Intact of 89Zr-complexes,"[2]; Fe3+, 2 h",100%
same,% Intact of 89Zr-complexes,"[2]; Fe3+, 1 d",100%
same,% Intact of 89Zr-complexes,"[2]; Fe3+, 4 d",100%
same,% Intact of 89Zr-complexes,"[2]; Fe3+, 7 d",100%
same,% Intact of 89Zr-complexes,"[2]; Ga3+, 2 h",100%
same,% Intact of 89Zr-complexes,"[2]; Ga3+, 1 d",100%
same,% Intact of 89Zr-complexes,"[2]; Ga3+, 4 d",100%
same,% Intact of 89Zr-complexes,"[2]; Ga3+, 7 d",100%
same,% Intact of 89Zr-complexes,"[2]; Gd3+, 2 h",100%
same,% Intact of 89Zr-complexes,"[2]; Gd3+, 1 d",100%
same,% Intact of 89Zr-complexes,"[2]; Gd3+, 4 d",100%
same,% Intact of 89Zr-complexes,"[2]; Gd3+, 7 d",100%
same,% Intact of 89Zr-complexes,"[2]; Mg2+, 2 h",100%
same,% Intact of 89Zr-complexes,"[2]; Mg2+, 1 d",100%
same,% Intact of 89Zr-complexes,"[2]; Mg2+, 4 d",100%
same,% Intact of 89Zr-complexes,"[2]; Mg2+, 7 d",100%
same,% Intact of 89Zr-complexes,"[2]; Zn2+, 2 h",100%
same,% Intact of 89Zr-complexes,"[2]; Zn2+, 1 d",100%
same,% Intact of 89Zr-complexes,"[2]; Zn2+, 4 d",100%
same,% Intact of 89Zr-complexes,"[2]; Zn2+, 7 d",100%
same,Demetallation in metal competition,"[2]; excess metal salts in aqueous buffer, over the 7 day experiment",no demetallation
same,Blood,"Biodistribution studies; 24 h, current study",0.001±0.000 % ID/g
same,Bone,"Biodistribution studies; 24 h, current study",0.036±0.008 % ID/g
same,Heart,"Biodistribution studies; 24 h, current study",0.016±0.004 % ID/g
same,Kidney,"Biodistribution studies; 24 h, current study",0.317±0.054 % ID/g
same,Liver,"Biodistribution studies; 24 h, current study",0.068±0.004 % ID/g
same,Muscle,"Biodistribution studies; 24 h, current study",0.004±0.001 % ID/g
same,Radioactivity in blood,Biodistribution studies; [4],0.0003 ± 0.001 % ID per g and 0.0003 ± 0.0008 % ID per g
same,Radioactivity in bone,Biodistribution studies; [4],0.025 ± 0.009 % ID per g
same,Radioactivity in kidney,Biodistribution studies; [4],0.078 ± 0.009 % ID per g
same,Radioactivity in liver,Biodistribution studies; [4],0.021 ± 0.002 % ID per g
same,Radioactivity retention in bone tissue over time,"Biodistribution studies; mice, time points up to 72 h",remained low
same,Transchelation in EDTA challenge,"[3]; 100-, 500-, and 1000-fold excess of EDTA at pH 5 or pH 7 over 7 days",did not undergo transchelation
same,% Intact of 89Zr-complexes,"[3]; EDTA 100-fold, pH 5.0, 37 C, 1 h",100%
same,% Intact of 89Zr-complexes,"[3]; EDTA 100-fold, pH 5.0, 37 C, 1 d",100%
same,% Intact of 89Zr-complexes,"[3]; EDTA 100-fold, pH 5.0, 37 C, 3 d",100%
same,% Intact of 89Zr-complexes,"[3]; EDTA 100-fold, pH 5.0, 37 C, 5 d",100%
same,% Intact of 89Zr-complexes,"[3]; EDTA 100-fold, pH 5.0, 37 C, 7 d",100%
same,% Intact of 89Zr-complexes,"[3]; EDTA 100-fold, pH 7.0, 37 C, 1 h",100%
same,% Intact of 89Zr-complexes,"[3]; EDTA 100-fold, pH 7.0, 37 C, 1 d",100%
same,% Intact of 89Zr-complexes,"[3]; EDTA 100-fold, pH 7.0, 37 C, 3 d",100%
same,% Intact of 89Zr-complexes,"[3]; EDTA 100-fold, pH 7.0, 37 C, 5 d",100%
same,% Intact of 89Zr-complexes,"[3]; EDTA 100-fold, pH 7.0, 37 C, 7 d",100%
same,% Intact of 89Zr-complexes,"[3]; EDTA 500-fold, pH 5.0, 37 C, 1 h",100%
same,% Intact of 89Zr-complexes,"[3]; EDTA 500-fold, pH 5.0, 37 C, 1 d",100%
same,% Intact of 89Zr-complexes,"[3]; EDTA 500-fold, pH 5.0, 37 C, 3 d",100%
same,% Intact of 89Zr-complexes,"[3]; EDTA 500-fold, pH 5.0, 37 C, 5 d",100%
same,% Intact of 89Zr-complexes,"[3]; EDTA 500-fold, pH 5.0, 37 C, 7 d",100%
same,% Intact of 89Zr-complexes,"[3]; EDTA 500-fold, pH 7.0, 37 C, 1 h",100%
same,% Intact of 89Zr-complexes,"[3]; EDTA 500-fold, pH 7.0, 37 C, 1 d",100%
same,% Intact of 89Zr-complexes,"[3]; EDTA 500-fold, pH 7.0, 37 C, 3 d",100%
same,% Intact of 89Zr-complexes,"[3]; EDTA 500-fold, pH 7.0, 37 C, 5 d",100%
same,% Intact of 89Zr-complexes,"[3]; EDTA 500-fold, pH 7.0, 37 C, 7 d",100%
same,% Intact of 89Zr-complexes,"[3]; EDTA 1000-fold, pH 5.0, 37 C, 1 h",100%
same,% Intact of 89Zr-complexes,"[3]; EDTA 1000-fold, pH 5.0, 37 C, 1 d",100%
same,% Intact of 89Zr-complexes,"[3]; EDTA 1000-fold, pH 5.0, 37 C, 3 d",100%
same,% Intact of 89Zr-complexes,"[3]; EDTA 1000-fold, pH 5.0, 37 C, 5 d",100%
same,% Intact of 89Zr-complexes,"[3]; EDTA 1000-fold, pH 5.0, 37 C, 7 d",100%
same,% Intact of 89Zr-complexes,"[3]; EDTA 1000-fold, pH 7.0, 37 C, 1 h",100%
same,% Intact of 89Zr-complexes,"[3]; EDTA 1000-fold, pH 7.0, 37 C, 1 d",100%
same,% Intact of 89Zr-complexes,"[3]; EDTA 1000-fold, pH 7.0, 37 C, 3 d",100%
same,% Intact of 89Zr-complexes,"[3]; EDTA 1000-fold, pH 7.0, 37 C, 5 d",100%
same,% Intact of 89Zr-complexes,"[3]; EDTA 1000-fold, pH 7.0, 37 C, 7 d",100%
